What was measured:
[1] = target: T1, EGFR (Homo sapiens, UniProt P00533); assay: KdELECT binding assay, EGFR
T1 construct: purchased
Protocol: Exemplary compounds were tested for ability to bind to EGFR.
(§1) Compounds were tested using a KdELECT assay. Kinase-tagged T7 phage strains were prepared in an E. coli host derived from the BL21 strain. E. coli were grown to log-phase and infected with T7 phage and incubated with shaking at 32° C. until lysis. The lysates were centrifuged and filtered to remove cell debris. The remaining kinases were produced in HEK-293 cells and subsequently tagged with DNA for qPCR detection. Streptavidin-coated magnetic beads were treated with biotinylated small molecule ligands for 30 minutes at room temperature to generate affinity resins for kinase assays. The liganded beads were blocked with excess biotin and washed with blocking buffer (SeaBlock (Pierce), 1% BSA, 0.05% Tween 20, 1 mM DTT) to remove unbound ligand and to reduce non-specific binding. Binding reactions were assembled by combining kinases, liganded affinity beads, and test compounds in 1× binding buffer (20% SeaBlock, 0.17×PBS, 0.05% Tween 20, 6 mM DTT). Test compounds were prepared as 111× stocks in 100% DMSO. Kd values were determined using an 11-point 3-fold compound dilution series with three DMSO control points. All compounds for Kd measurements are distributed by acoustic transfer (non-contact dispensing) in 100% DMSO. The compounds were then diluted directly into the assays such that the final concentration of DMSO was 0.9%. All reactions performed in polypropylene 384-well plate. Each was a final volume of 0.02 mL. The assay plates were incubated at room temperature with shaking for 1 hour and the affinity beads were washed with wash buffer (1× PBS, 0.05% Tween 20). The beads were then re-suspended in elution buffer (1× PBS, 0.05% Tween 20, 0.5 μM nonbiotinylated affinity ligand) and incubated at room temperature with shaking for 30 minutes. The kinase concentration in the eluates was measured by qPCR.

[2] = target: T2, EGFR T790M, L858R (amino acids 669-1011 Accession Number NP_005219.2) (Homo sapiens, UniProt P00533, L858R/T790M); assay: KdELECT binding assay (Eurofins Discovery), EGFR T790M, L858R; details: read-out: EGFR DM Kd
T2 construct: purchased Eurofins Discovery; host or cells: mammalian cells (HEK-293)
T2 sequence (P00533 669-1011 T790M/L858R): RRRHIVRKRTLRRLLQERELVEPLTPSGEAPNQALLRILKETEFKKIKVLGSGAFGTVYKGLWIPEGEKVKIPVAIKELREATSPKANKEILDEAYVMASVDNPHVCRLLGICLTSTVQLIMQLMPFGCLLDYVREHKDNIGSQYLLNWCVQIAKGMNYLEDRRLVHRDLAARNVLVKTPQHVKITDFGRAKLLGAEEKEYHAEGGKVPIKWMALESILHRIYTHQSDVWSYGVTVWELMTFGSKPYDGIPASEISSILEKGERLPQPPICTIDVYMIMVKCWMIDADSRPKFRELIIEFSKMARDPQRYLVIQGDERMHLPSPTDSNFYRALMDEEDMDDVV
Protocol: (§2) Exemplary compounds were tested for ability to bind to EGFR WT (amino acids 669-1011, Accession Number NP_005219.2) or EGFR T790M, L858R (amino acids 669-1011 Accession Number NP_005219.2) expressed from bacteria or mammalian cells, respectively. Compounds were tested using the KdELECT assay at Eurofins Discovery.
as §1, with “Kinase-tagged” for “Compounds were tested using a KdELECT assay. Kinase-tagged”

[3] = test system: HEK293 cells; assay: Cellular growth inhibition assay (CellTiter-Glo), HEK293 cells; format: cell-based; details: Homo sapiens, 72 h, three days compound treatment, CellTiter-Glo 2.0, read-out: CTG HEK293 GI50
Protocol: Exemplary compounds were tested for ability to inhibit the proliferation of HEK293 cells or HeLa cells.
HEK293 and HeLa cells were cultured in DMEM medium supplemented with 10% fetal bovine serum and 1% Penn/Strep. Cells were seeded in white 384-well plates at 500 cells/well in […] complete medium. Following seeding, plates were spun at 300×g for three minutes and cultured at 37° C. with 5% CO2 in a humidified tissue culture incubator.
After 24 hours, compounds were titrated in 100% DMSO and diluted in complete cell culture medium. […] of compound/media mixture was added to cells to bring total volume in well to […]. DMSO alone was used as a negative control. P lates were then spun at 300×g for three minutes and stored at 37° C. with 5% CO2 for three days.
On Day 0 and Day 3 of compound treatment, cell viability was quantified with CellTiter-Glo 2.0 reagent (Promega). After equilibrating microplates at room temperature for 30 minutes, 25 μL CellTiter-Glo 2.0 reagent was dispensed into each well to bring total volume to […]. Plates were mixed on shaker for 2 minutes at 500 rpm, followed by a 10-minute incubation at room temperature. Following a quick spin, luminescence readings were measured with an EnVision Plate Reader. Data was normalized to DMSO treated Day 0 and Day 3 readings. A four-parameter non-linear regression curve fit was applied to dose-response data in GraphPad Prism data analysis software to determine the half maximal growth inhibitory concentration (GI50) for each compound.

[4] = target: T3, EGFR WT (amino acids 669-1011, Accession Number NP_005219.2) (Homo sapiens, UniProt P00533); assay: KdELECT binding assay (Eurofins Discovery), EGFR WT
T3 construct: purchased Eurofins Discovery; host or cells: bacteria (E. coli, BL21-derived, T7 phage)
T3 sequence (P00533 669-1011): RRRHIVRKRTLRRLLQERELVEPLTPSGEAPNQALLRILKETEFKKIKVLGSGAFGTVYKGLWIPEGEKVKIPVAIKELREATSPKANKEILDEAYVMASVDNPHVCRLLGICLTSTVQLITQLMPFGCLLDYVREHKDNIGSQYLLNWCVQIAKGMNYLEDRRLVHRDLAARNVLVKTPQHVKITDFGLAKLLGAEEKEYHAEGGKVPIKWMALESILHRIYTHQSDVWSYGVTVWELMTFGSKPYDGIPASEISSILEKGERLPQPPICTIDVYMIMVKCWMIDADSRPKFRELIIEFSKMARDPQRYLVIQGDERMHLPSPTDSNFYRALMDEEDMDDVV
Protocol: as §2
as §1, with “Kinase-tagged” for “Compounds were tested using a KdELECT assay. Kinase-tagged”

T1 sequence (P00533 25-1210): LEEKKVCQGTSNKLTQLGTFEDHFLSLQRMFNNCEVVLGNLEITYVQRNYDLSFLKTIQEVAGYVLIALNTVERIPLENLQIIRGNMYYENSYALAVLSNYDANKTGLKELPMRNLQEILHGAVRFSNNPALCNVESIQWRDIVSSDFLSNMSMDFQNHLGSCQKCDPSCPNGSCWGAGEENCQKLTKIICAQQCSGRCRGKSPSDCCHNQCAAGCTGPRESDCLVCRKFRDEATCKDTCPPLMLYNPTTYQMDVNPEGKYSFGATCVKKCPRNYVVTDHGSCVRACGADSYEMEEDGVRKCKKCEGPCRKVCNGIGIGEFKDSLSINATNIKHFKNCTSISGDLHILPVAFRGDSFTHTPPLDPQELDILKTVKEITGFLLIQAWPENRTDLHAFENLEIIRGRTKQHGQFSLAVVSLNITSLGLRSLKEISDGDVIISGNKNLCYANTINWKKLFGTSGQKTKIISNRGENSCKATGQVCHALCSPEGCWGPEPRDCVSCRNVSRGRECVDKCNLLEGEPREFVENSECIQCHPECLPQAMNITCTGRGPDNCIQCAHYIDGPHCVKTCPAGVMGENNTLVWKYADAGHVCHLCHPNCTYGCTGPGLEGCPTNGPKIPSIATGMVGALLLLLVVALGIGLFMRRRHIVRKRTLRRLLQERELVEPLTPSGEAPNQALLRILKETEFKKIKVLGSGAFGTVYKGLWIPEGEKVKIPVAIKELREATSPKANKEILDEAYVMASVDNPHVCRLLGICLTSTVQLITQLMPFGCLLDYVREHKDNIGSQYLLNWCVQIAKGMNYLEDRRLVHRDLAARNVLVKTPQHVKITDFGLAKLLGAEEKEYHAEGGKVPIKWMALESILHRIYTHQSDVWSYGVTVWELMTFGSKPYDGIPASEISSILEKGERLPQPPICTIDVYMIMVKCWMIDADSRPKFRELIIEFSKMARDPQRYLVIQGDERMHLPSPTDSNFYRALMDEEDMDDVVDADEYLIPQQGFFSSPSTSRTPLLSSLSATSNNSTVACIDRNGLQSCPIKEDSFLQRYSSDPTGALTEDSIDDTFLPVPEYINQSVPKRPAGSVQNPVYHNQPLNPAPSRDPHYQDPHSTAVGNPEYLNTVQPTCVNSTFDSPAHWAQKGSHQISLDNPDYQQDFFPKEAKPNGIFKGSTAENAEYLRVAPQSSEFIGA

SMILES	Kd [1] [nM]	Kd [2] [nM]	Kd [4] [nM]	GI50 [3] [nM]
C=CC(=O)Nc1cc(Nc2nccc(-c3cn(C)c4ccccc34)n2)c(OC)cc1N(C)CCN(C)CCOCCOCCOCCOCCOCCOCCNS(=O)(=O)c1ccc(Nc2ncc(Br)c(Nc3cccc(F)c3C(N)=O)n2)cc1 [Compound I-34, 2-[[5-bromo-2-[4-[2-[2-[2-[2-[2-[2-[2-[2-[5-methoxy-N-methyl-4-[[4-(1-methylindol-3-yl)pyrimidin-2-yl]amino]-2-(prop-2-enoylamino)anilino]ethyl-methyl-amino]ethoxy]ethoxy]ethoxy]-ethoxy]ethoxy]ethoxy]ethylsulfamoyl]anilino]pyrimidin-4-yl]amino]-6-fluoro-benzamide]	< 50	< 50	50 to 500	–
C=CC(=O)Nc1cc(Nc2nccc(-c3cn(C)c4ccccc34)n2)c(OC)cc1N(C)CCN(C)CCCCCCCCNS(=O)(=O)c1ccc(Nc2ncc(Br)c(Nc3cccc(F)c3C(N)=O)n2)cc1 [Compound I-28, 2-[[5-bromo-2-[4-[8-[2-[5-methoxy-N-methyl-4-[[4-(1-methylindol-3-yl)pyrimidin-2-yl]amino]-2-(prop-2-enoylamino)anilino]ethyl-methyl-amino]octylsulfamoyl]anilino]pyrimidin-4-yl]amino]-6-fluoro-benzamide]	< 50	< 50	50 to 500	–
C=CC(=O)Nc1cc(Nc2nccc(-c3cn(C)c4ccccc34)n2)c(OC)cc1N(C)CCN(C)CCCCNS(=O)(=O)c1ccc(Nc2ncc(Br)c(Nc3cccc(F)c3C(N)=O)n2)cc1 [Compound I-29, 2-[[5-bromo-2-[4-[4-[2-[5-methoxy-N-methyl-4-[[4-(1-methylindol-3-yl)pyrimidin-2-yl]amino]-2-(prop-2-enoylamino)anilino]ethyl-methyl-amino]butylsulfamoyl]anilino]pyrimidin-4-yl]amino]-6-fluoro-benzamide]	–	< 50	50 to 500	–
C=CC(=O)Nc1cc(Nc2nccc(-c3cn(C)c4ccccc34)n2)c(OC)cc1N(C)CCN(C)CCOCCOCCOCCOCCNS(=O)(=O)c1ccc(Nc2ncc(Br)c(Nc3cccc(F)c3C(N)=O)n2)cc1 [Compound I-32, 2-[[5-bromo-2-[4-[2-[2-[2-[2-[2-[2-[5-methoxy-N-methyl-4-[[4-(1-methylindol-3-yl)pyrimidin-2-yl]amino]-2-(prop-2-enoylamino)anilino]ethyl-methyl-amino]ethoxy]-ethoxy]ethoxy]ethoxy]ethylsulfamoyl]anilino]pyrimidin-4-yl]amino]-6-fluoro-benzamide]	–	< 50	50 to 500	–

Further lines, with some results ahead:

Kd [1] [nM]	Kd [2] [nM]	Kd [4] [nM]	SMILES	GI50 [3] [nM]
> 2500	50 to 500	> 2500	CCC1C(=O)N(C)c2cnc(Nc3ccc(C(=O)NCCOCCOCCN(C)CC=CC(=O)NC4CN(c5nc(Nc6cn(C)nc6OC)c6ncn(C)c6n5)CC4F)cc3OC)nc2N1C1CCCC1 [Compound I-120, 4-[[(7R)-8-cyclopentyl-7-ethyl-5-methyl-6-oxo-7H-pteridin-2-yl]amino]-N-[2-[2-[2-[[(E)-4-1[[(3R,4R)-4-fluoro-1-[6-1[(3-methoxy-1-methyl-pyrazol-4-yl)amino]-9-methyl-purin-2-yl]pyrrolidin-3-yl]amino]-4-oxo-but-2-enyl]-methylamino]ethoxy]ethoxy]ethyl]-3-methoxy-benzamide]	500 to 1500
–	< 50	500 to 2500	C=CC(=O)Nc1cc(Nc2nccc(-c3cn(C)c4ccccc34)n2)c(OC)cc1N(C)CCN(C)CCOCCOCCOCCOCCOCCOCCON(C)C(=O)N1N=C(c2cc(F)ccc2F)SC1(CCCN)c1ccccc1 (centres unmarked) [Compound I-68]	–
> 2500	50 to 500	> 2500	C=CC(=O)Nc1cc(Nc2nccc(-c3cn(C)c4ccccc34)n2)c(OC)cc1N(C)CCN(C)CCNC(=O)c1ccc(Nc2ncc3c(n2)N(C2CCCC2)[C@H](CC)C(=O)N3C)c(OC)c1 [Compound I-115, 4-[[(7R)-8-cyclopentyl-7-ethyl-5-methyl-6-oxo-7H-pteridin-2-yl]amino]-3-methoxy-N-[2-[2-[5-methoxy-N-methyl-4-[1[4-(1-methylindol-3-yl)pyrimidin-2-yl]amino]-2-(prop-2-enoylamino)anilino]ethyl-methyl-amino]ethyl]benzamide]	500 to 1500
> 2500	50 to 500	> 2500	CC[C@@H]1C(=O)N(C)c2cnc(Nc3ccc(C(=O)NCCOCCOCCN(C)C/C=C/C(=O)Nc4cc(Nc5nccc(-c6cn(C)c7ccccc67)n5)c(OC)cc4N(C)CCN(C)C)cc3OC)nc2N1C1CCCC1 [Compound I-117, 4-[[(7R)-8-cyclopentyl-7-ethyl-5-methyl-6-oxo-7H-pteridin-2-yl]amino]-N-[2-[2-[2-1[[(E)-4-1[2-[2-(dimethylamino)ethyl-methyl-amino]-4-methoxy-5-1[[4-(1-methylindol-3-yl)pyrimidin-2-yl]amino]anilino]-4-oxo-but-2-enyl]-methyl-amino]ethoxy]ethoxy]ethyl]-3-methoxy-benzamide]	500 to 1500
500 to 2500	–	500 to 2500	C=CC(=O)Nc1cc(Nc2nccc(-c3cn(C)c4ccccc34)n2)c(OC)cc1N(C)CCN(C)CCOCCOCCOCCOCCOCCOCCNC(=O)c1ccc(Nc2ncc3c(n2)N(C2CCCC2)[C@H](CC)C(=O)N3C)c(OC)c1 [Compound I-113, (R)—N-(2-(2-acrylamido-5-methoxy-4-((4-(1-methyl-1H-indol-3-yl)pyrimidin-2-yl)amino)phenyl)-5-methyl-8,11,14,17,20,23-hexaoxa-2,5-diazapentacosan-25-yl)-4-((8-cyclopentyl-7-ethyl-5-methyl-6-oxo-5,6,7,8-tetrahydropteridin-2-yl)amino)-3-methoxybenzamide]	1500 to 5000
500 to 2500	–	500 to 2500	C=CC(=O)Nc1cc(Nc2nccc(-c3cn(C)c4ccccc34)n2)c(OC)cc1N(C)CCN(C)CCOCCOCCOCCOCCNC(=O)c1ccc(Nc2ncc3c(n2)N(C2CCCC2)[C@H](CC)C(=O)N3C)c(OC)c1 [Compound I-112, 4-[[(7R)-8-cyclopentyl-7-ethyl-5-methyl-6-oxo-7H-pteridin-2-yl]amino]-3-methoxy-N-[2-[2-[2-1[2-[2-1[2-1[5-methoxy-N-methyl-4-1[[4-(1-methylindol-3-yl)pyrimidin-2-yl]amino]-2-(prop-2-enoylamino)anilino]ethyl-methyl-amino]ethoxy]ethoxy]ethoxy]ethoxy]ethyl]benzamide]	–
